These results are taken from ChEMBL document CHEMBL4011641, “Prodrugs of Pyrazolo[3,4-d]pyrimidines: From Library Synthesis to Evaluation as Potential Anticancer Agents in an Orthotopic Glioblastoma Model” (J Med Chem, 2017).

SMILES strings stand for the structures. Values after ≈ are worked out from the molar mass of the structure shown.

Data set [1] in a line: Half life in PBS buffer at 100 uM at pH 7.4 by UV/LC-MS analysis. The class given is physicochemical.
Data set [2] is described as follows: cells. To be noted: Homo sapiens, U-87 MG, 48 h.
Description: Cytotoxicity against human U87 cells assessed as reduction in cell viability after 48 hrs by trypan blue assay
Data set [3] is described as follows: physchem. To be noted: PAMPA. A general note: The PAMPA barrier holds no transporters, so it reflects passive diffusion.
Description: (§1) Apparent permeability at 500 uM after 5 hrs by Gastro-intestinal-based PAMPA
Data set [4] is described as follows: physchem. The conditions noted are these: PAMPA. This is another data set of the same source.
Description: Apparent permeability at 500 uM after 5 hrs by Blood-Brain Barrier-based PAMPA
The nature of data set [5]: cells. The conditions noted are these: Homo sapiens, U-87 MG, 24 h.
Description: Cytotoxicity against human U87 cells assessed as reduction in cell viability after 24 hrs by trypan blue assay
A short description of data set [6]: Half life in human plasma by UV/LC-MS analysis. Format: ADME, cell-free.
The nature of data set [7]: Half life in methanol at 100 uM by UV/LC-MS analysis. Format: physicochemical.
Data set [8] in a line: physchem. The conditions noted are these: aqueous.
Description: Aqueous solubility of compound at 1 mg after 24 hrs by UV/LC-MS analysis
Data set [9] is described as follows: cells. The conditions noted are these: Homo sapiens, U-87 MG, 72 h.
Description: Cytotoxicity against human U87 cells assessed as reduction in cell viability after 72 hrs by trypan blue assay
Data set [10] is described as follows: Prodrug activation in human U87 cells assessed as N-(3-bromophenyl)-6-(methylthio)-1-(2-phenylpropyl)-1H-pyrazolo[3,4-d]pyrimidin-4-amine formation at 20 uM up to 25 hrs by UV/LC-MS analysis. Format: cell-based. The conditions noted are these: u-87mg atcc.
Data set [11] is described as follows: Drug uptake in cytoplasm of human U87 cells at 20 uM after 7 hrs by UV/LC-MS analysis. Format: ADME.
The target of data set [12] is Proto-oncogene tyrosine-protein kinase Src (Homo sapiens, UniProt P12931). Kind of data set: biochemical.
Description: Inhibition of human wild type full length N-terminal GST/6His-tagged SRC (M1 to L536 residues) expressed in baculovirus infected Sf9 cells using src peptide as substrate after 5 mins in presence of [gamma-32P]ATP by scintillation counting method
Data set [13] has as its target Tyrosine-protein kinase ABL1 (Homo sapiens, UniProt P00519).
Description: Inhibition of human wild type full length N-terminal GST/6His-tagged ABL (P118 to S535 residues) expressed in Sf9 cells using abltide as substrate after 5 mins in presence of [gamma-32P]ATP by scintillation counting
A short description of data set [14]: Metabolic stability in human liver microsomes assessed as parent compound remaining at 50 uM after 1 hr in presence of NADPH regenerating system by UV/LC-MS analysis. Format: ADME, microsome. The conditions noted are these: read-out: Stability. On the technique in general: Microsomes from liver hold many membrane-bound enzymes, among them those of drug oxidation.

The nature of data set [15]: Metabolic stability in mouse liver microsomes assessed as unmetabolized compound remaining at 50 uM after 1 hr in presence of NADPH regenerating system by UV/LC-MS analysis. The class given is ADME, microsome. The conditions noted are these: read-out: Stability.
The conditions of data set [16]: pampa, 5 h, 500 µM.
Description: as §1

Chain of Proto-oncogene tyrosine-protein kinase Src (P12931 2-536 limits assumed): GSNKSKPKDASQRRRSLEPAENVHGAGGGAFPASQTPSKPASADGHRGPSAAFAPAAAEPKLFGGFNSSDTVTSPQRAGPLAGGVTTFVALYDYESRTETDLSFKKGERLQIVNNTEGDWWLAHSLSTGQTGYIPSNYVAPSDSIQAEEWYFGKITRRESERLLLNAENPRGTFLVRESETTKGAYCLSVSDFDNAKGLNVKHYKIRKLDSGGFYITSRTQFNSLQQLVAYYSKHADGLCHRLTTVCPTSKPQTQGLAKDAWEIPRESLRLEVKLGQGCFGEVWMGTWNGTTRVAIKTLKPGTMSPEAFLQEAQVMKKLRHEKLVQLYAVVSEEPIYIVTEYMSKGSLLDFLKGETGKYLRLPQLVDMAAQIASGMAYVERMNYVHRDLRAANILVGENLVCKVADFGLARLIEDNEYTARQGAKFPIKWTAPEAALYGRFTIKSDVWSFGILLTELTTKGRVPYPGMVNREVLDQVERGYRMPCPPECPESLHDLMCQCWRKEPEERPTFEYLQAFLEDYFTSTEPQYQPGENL
Chain of Tyrosine-protein kinase ABL1 (P00519 whole entry): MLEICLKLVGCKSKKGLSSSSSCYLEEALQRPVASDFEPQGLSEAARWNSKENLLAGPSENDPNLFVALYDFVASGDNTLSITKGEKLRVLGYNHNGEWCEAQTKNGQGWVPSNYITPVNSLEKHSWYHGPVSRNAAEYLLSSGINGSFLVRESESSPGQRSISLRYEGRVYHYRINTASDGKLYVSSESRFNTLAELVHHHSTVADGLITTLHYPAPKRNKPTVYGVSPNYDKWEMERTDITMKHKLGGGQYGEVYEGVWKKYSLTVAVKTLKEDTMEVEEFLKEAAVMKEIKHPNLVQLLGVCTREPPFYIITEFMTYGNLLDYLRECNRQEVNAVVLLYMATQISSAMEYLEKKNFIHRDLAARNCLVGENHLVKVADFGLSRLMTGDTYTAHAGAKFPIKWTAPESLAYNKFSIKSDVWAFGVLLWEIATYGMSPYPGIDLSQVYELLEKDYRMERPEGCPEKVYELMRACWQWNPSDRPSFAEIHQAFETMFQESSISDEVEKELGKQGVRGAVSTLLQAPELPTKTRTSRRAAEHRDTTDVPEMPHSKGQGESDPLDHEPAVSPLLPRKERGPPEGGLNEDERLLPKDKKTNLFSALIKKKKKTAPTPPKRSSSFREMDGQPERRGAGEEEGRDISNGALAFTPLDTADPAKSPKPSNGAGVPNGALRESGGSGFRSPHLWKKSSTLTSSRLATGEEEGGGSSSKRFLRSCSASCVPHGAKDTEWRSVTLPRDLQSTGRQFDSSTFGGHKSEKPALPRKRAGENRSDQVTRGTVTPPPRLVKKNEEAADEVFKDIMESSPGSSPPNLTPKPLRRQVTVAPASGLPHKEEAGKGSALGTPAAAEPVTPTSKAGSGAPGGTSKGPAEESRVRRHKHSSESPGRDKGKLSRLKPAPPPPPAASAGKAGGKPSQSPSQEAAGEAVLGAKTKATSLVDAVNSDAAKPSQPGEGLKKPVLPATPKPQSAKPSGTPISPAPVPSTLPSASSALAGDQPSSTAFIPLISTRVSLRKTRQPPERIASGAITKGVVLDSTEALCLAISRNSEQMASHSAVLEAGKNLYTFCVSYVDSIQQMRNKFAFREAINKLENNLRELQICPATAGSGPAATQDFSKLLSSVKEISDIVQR

For the molecule `CN1CCN(CCOC(=O)N(c2ccccc2)c2ncnc3c2cnn3CC(Cl)c2ccc(Br)cc2)CC1` (configuration not stated), the half-life at 100 µM in [1] and in [7] was greater than 48 h in each case. Moreover, the IC50 (commonly the concentration at which inhibition is half-maximal) amounted to 5.1 µM in data set [2], 8.2 µM in [5] and 2 µM in data set [9]. Also, the values for the Papp at 5 h, 500 µM in [3] and in data set [4] were 9.91 ×10⁻⁶ cm/s and 6.97 ×10⁻⁶ cm/s, respectively. Also, the half-life (commonly the time needed for the level to fall by half in the phase considered) in [6] is 5.68 h. Also, the solubility – broadly, the dissolved amount per volume that the medium holds – at 24 h in data set [8] amounted to 41.6 µg/mL (≈ 69.4 µM).

For the molecule `CSc1nc(N(C(=O)OC(Cc2ccccc2)CN2CCN(C)CC2)c2cccc(Br)c2)c2cnn(CC(C)c3ccccc3)c2n1` (configuration not stated), the half-life at 100 µM in [1] and in data set [7] was greater than 48 h throughout. Further, the IC50 is 2.45 µM in data set [2], 6.7 µM in data set [5] and 1.69 µM in [9]. Moreover, the apparent permeability coefficient (Papp) (in general, a coefficient for how fast a substance crosses the barrier) at 5 h, 500 µM in data set [3] came to 2.32 ×10⁻⁶ cm/s; in data set [4] it was 1.01 ×10⁻⁶ cm/s. This molecule also showed a half-life in data set [6] of 40 h. In data set [10], the Drug metabolism entry is on record as “Metabolite_Detected”. In data set [11], the Drug uptake entry is “Active”. Also, the Ki in [12] and in [13] was greater than 100 µM each time. In addition, the concentration in solution in data set [8] (solubility at 24 h) came to 0.99 µg/mL (≈ 1.39 µM).

Consider `CSc1nc(N(C(=O)OC(C)CN2CCN(C)CC2)c2cccc(Br)c2)c2cnn(CC(C)c3ccccc3)c2n1` (configuration not stated), for which the half-life at 100 µM in data set [1] and in data set [7] was greater than 48 h throughout. In addition, the values for the 50% inhibitory concentration (IC50) in data set [2], in [5] and in data set [9] were 4.5 µM, 7.4 µM and 1.8 µM, respectively. The figures for the Papp at 5 h, 500 µM in data set [3] and in data set [4] were 2.15 ×10⁻⁶ cm/s and 2.39 ×10⁻⁶ cm/s, respectively. In data set [10], the Drug metabolism result is given as “Metabolite_Detected”. Besides, the Drug uptake entry in data set [11] is on record as “Active”. Further, the Ki in data set [12] and in [13] was greater than 100 µM each time. This molecule registered a solubility at 24 h in data set [8] of 3.4 µg/mL (≈ 5.32 µM).

`CN1CCN(CCOC(=O)N(Cc2ccccc2)c2ncnc3c2cnn3CC(Cl)c2ccccc2)CC1` (configuration not stated): the half-life at 100 µM in [1] and in [7] was greater than 48 h throughout. Moreover, the 50% inhibitory concentration (IC50) is 15.2 µM in data set [2], 18.6 µM in data set [5] and 15 µM in data set [9]. Besides, the Papp at 5 h, 500 µM in [3] was 6.7 ×10⁻⁶ cm/s; in data set [4], 5.01 ×10⁻⁶ cm/s. The molecule further had a half-life in data set [6] of 64.4 h. Also, the solubility at 24 h in data set [8] was found to be 18.8 µg/mL (≈ 35.2 µM). For the same molecule, the remaining at 1 h, 50 µM in [14] amounted to 86.4%.

In the case of `ClC(Cn1ncc2c(Nc3ccccc3)ncnc21)c1ccc(Br)cc1` (configuration not stated), the values for the IC50 in data set [2], in data set [5] and in data set [9] were 17.3 µM, 25.3 µM and 14 µM, respectively. Also, in data set [8], the solubility at 24 h amounted to 0.06 µg/mL (≈ 0.14 µM). Besides, the remaining at 1 h, 50 µM in data set [14] stood at 96.4%.

Take `ClC(Cn1ncc2c(NCc3ccccc3)ncnc21)c1ccccc1` (configuration not stated): the half-maximal inhibitory concentration (IC50) in [2] was determined as 4.9 µM; in data set [5] it was 14.6 µM; in data set [9] it was 2.9 µM. The solubility at 24 h in data set [8] is 0.7 µg/mL (≈ 1.92 µM). The remaining at 1 h, 50 µM in data set [14] worked out at 78.3%.

Regarding `CSc1nc(NCCc2ccccc2)c2cnn(CC(Cl)c3ccccc3)c2n1` (configuration not stated), the Papp at 5 h, 500 µM in data set [3] was 7.4 ×10⁻⁶ cm/s; in data set [4], 6.17 ×10⁻⁶ cm/s. The molecule also registered a solubility at 24 h in [8] of 0.07 µg/mL (≈ 0.165 µM). Moreover, in data set [14], the remaining at 1 h, 50 µM worked out at 96.2%.

In the case of `CSc1nc(N(C(=O)OCCN2CCN(C)CC2)c2cccc(Cl)c2)c2cnn(CCc3ccccc3)c2n1`, the half-life at 100 µM in data set [1] and in [7] was greater than 48 h throughout. Also, the figures for the apparent permeability (Papp) at 5 h, 500 µM in data set [3] and in data set [4] were 4.69 ×10⁻⁶ cm/s and 4.3 ×10⁻⁶ cm/s, respectively. The same molecule had a half-life in [6] of 3.13 h. In addition, in data set [8], the concentration in solution (solubility at 24 h) came to 6.32 µg/mL (≈ 11.2 µM).

With `CN1CCN(CCOC(=O)N(Cc2ccccc2Cl)c2ncnc3c2cnn3CC(Cl)c2ccc(Br)cc2)CC1` (configuration not stated), the half-life at 100 µM in data set [1] and in data set [7] was greater than 48 h each time. The Papp at 5 h, 500 µM in data set [3] was found to be 2.38 ×10⁻⁶ cm/s; in [4], 1.92 ×10⁻⁶ cm/s. The molecule further had a half-life in data set [6] of 75 h. Moreover, in [8], the solubility at 24 h is 1.95 µg/mL (≈ 3.01 µM).

As for `CSc1nc(N(C(=O)OCCN2CCN(C)CC2)c2cccc(Cl)c2)c2cnn(CC(Cl)c3ccccc3)c2n1` (configuration not stated), the half-life at 100 µM in data set [1] and in data set [7] was greater than 48 h each time. In addition, the concentration for half-maximal inhibition (IC50) came out at 7.9 µM in data set [2], 11.5 µM in data set [5] and 2.54 µM in [9]. The figures for the Papp at 5 h, 500 µM in [3] and in data set [4] were 4.95 ×10⁻⁶ cm/s and 4.14 ×10⁻⁶ cm/s, respectively. In addition, the half-life in data set [6] is 3.71 h. Also, the solubility at 24 h in data set [8] stood at 4.22 µg/mL (≈ 7.03 µM).

Consider `CSc1nc(Nc2cccc(Br)c2)c2cnn(CC(C)c3ccccc3)c2n1` (configuration not stated), for which the IC50 worked out at 2.3 µM in [2], 16.2 µM in data set [5] and 1.5 µM in [9]. The figures for the Papp at 5 h, 500 µM in data set [3] and in data set [4] were 0.01 ×10⁻⁶ cm/s and 0.5 ×10⁻⁶ cm/s, respectively. Also, the remaining at 1 h, 50 µM in data set [15] worked out at 94.2%. In addition, the concentration in solution in data set [8] (solubility at 24 h) came to 0.01 µg/mL (≈ 0.022 µM).

`CCC(CN1CCN(C)CC1)OC(=O)N(c1cccc(Br)c1)c1nc(SC)nc2c1cnn2CC(C)c1ccccc1` (configuration not stated): the half-life at 100 µM in data set [1] and in data set [7] was greater than 48 h each time. The IC50 is 6.4 µM in data set [2], 7.7 µM in data set [5] and 2 µM in [9]. In addition, the Papp at 5 h, 500 µM came to 1.45 ×10⁻⁶ cm/s in [3] and 0.93 ×10⁻⁶ cm/s in data set [4]. Further, the half-life in data set [6] is 11.3 h. This molecule registered a solubility at 24 h in [8] of 1.96 µg/mL (≈ 3 µM).

For `CSc1nc(N(C(=O)OC(CN2CCN(C)CC2)c2ccccc2)c2cccc(Br)c2)c2cnn(CC(C)c3ccccc3)c2n1` (configuration not stated), the half-life at 100 µM in [1] and in data set [7] was less than 0.25 h throughout.

For `CSc1nc(N(CCc2ccccc2)C(=O)OCCN2CCN(C)CC2)c2cnn(CC(Cl)c3ccccc3)c2n1` (configuration not stated), the half-life at 100 µM in data set [1] and in data set [7] was greater than 48 h in each case. In addition, the values for the apparent permeability (Papp) at 5 h, 500 µM in data set [3] and in data set [4] were 0.85 ×10⁻⁶ cm/s and 0.01 ×10⁻⁶ cm/s, respectively. The half-life in [6] is 45.2 h. For the same molecule, the concentration in solution in data set [8] (solubility at 24 h) was 107 µg/mL (≈ 180 µM).

As to `CCCCN(C(=O)OCCN1CCN(C)CC1)c1nc(SCC)nc2c1cnn2CC(Cl)c1ccccc1` (configuration not stated), the half-life at 100 µM was 1 h in data set [1] and 2 h in data set [7]. Besides, the half-life in [6] was 0.46 h.

In turn, `CSc1nc(Nc2cccc(Cl)c2)c2cnn(CCc3ccccc3)c2n1` displayed an apparent permeability (Papp) at 5 h, 500 µM in data set [4] of 1.48 ×10⁻⁶ cm/s. The same molecule showed an apparent permeability (Papp) in data set [16] of 0.25 ×10⁻⁶ cm/s. Also, in data set [14], the remaining at 1 h, 50 µM worked out at 99%.

For `CSc1nc(Nc2cccc(Cl)c2)c2cnn(CC(Cl)c3ccccc3)c2n1` (configuration not stated), the results for the IC50 in [2], in [5] and in data set [9] were 17.2 µM, 21.8 µM and 12.5 µM, respectively. The Papp at 5 h, 500 µM in [4] was found to be 3.14 ×10⁻⁶ cm/s. For the same molecule, the Papp in data set [16] stood at 0.26 ×10⁻⁶ cm/s. Also, in data set [12], the Ki (in general, the dissociation constant of the complex between target and ligand, obtained from inhibition or displacement) was determined as 0.72 µM. Further, in data set [8], the solubility at 24 h was 0.13 µg/mL (≈ 0.302 µM). For the same molecule, the remaining at 1 h, 50 µM in [14] amounted to 91.1%.

For the molecule `Clc1ccccc1CNc1ncnc2c1cnn2CC(Cl)c1ccc(Br)cc1` (configuration not stated), the Papp at 5 h, 500 µM in data set [4] was determined as 13.2 ×10⁻⁶ cm/s. In data set [8], this molecule came in with a solubility at 24 h of less than 0.01 µg/mL. Further, the remaining at 1 h, 50 µM in [14] stood at 95.2%.

`CCCCNc1nc(SCC)nc2c1cnn2CC(Cl)c1ccccc1` (configuration not stated): in data set [4], the apparent permeability (Papp) at 5 h, 500 µM is 9.99 ×10⁻⁶ cm/s. In addition, the solubility at 24 h in data set [8] was determined as 0.05 µg/mL (≈ 0.128 µM).
